Each compound was assayed against T1, B-Raf (V600E)-kinase (Homo sapiens, UniProt P15056, V600E) (assay: Kinase test B-Raf (V600E)). Conditions: 1 h incubation with kinase before start, 250 μM ATP, biotinylated MEK1 substrate.
T1 construct: purchased Upstate
Assay type: biochemical
Experimental: Kinase Test B-Raf (V600E)
In a dilution series 10 μL/well of test substance solution are placed in a multiwell plate. The dilution series is selected so that generally a range of concentrations of 2 μM to 0.119 nM or 0.017 nM is covered. If necessary the initial concentration of 2 μM is changed to 50 μM, 10 μM, 0.4 μM or 0.2857 μM and further dilution is carried out accordingly. The final concentration of DMSO is 5%. 10 μL/well of the B-Raf (V600E)-kinase solution are pipetted in (containing 0.5 ng B-Raf (V600E)-kinase, e.g. from Upstate) in 20 mM tris-HCl pH 7.5, 0.1 mM EDTA, 0.1 mM EGTA, 0.286 mM sodium orthovanadate, 10% glycerol, 1 mg/mL bovine serum albumin, 1 mM dithiothreitol) and the mixture is incubated for 1 h at RT with shaking. The kinase reaction is started by the addition of 20 μL/well ATP solution [final concentration: 250 μM ATP, 30 mM tris-HCl pH 7.5, 0.02% Brij, 0.2 mM sodium orthovanadate, 10 mM magnesium acetate, 0.1 mM EGTA, phosphatase cocktail (Sigma, # P2850, dilution recommended by the manufacturer)] and 10 μL/well MEK1 solution [containing 50 ng biotinylated MEK1 (prepared from purified MEK1 according to standard procedure, e.g. with EZ-Link Sulpho-NHS-LC-Biotin reagent, Pierce, #21335)] and carried out for 60 min at RT with constant shaking. The reaction is stopped by the addition of 12 μL/well of a 100 mM EDTA solution and incubation is continued for a further 5 min. 55 μL/well of the reaction solution are transferred into a streptavidin-coated plate (e.g. Streptawell HighBond, Roche, #11989685001) and gently shaken for 1 h at RT in order to bind biotinylated MEK1 to the plate. After elimination of the liquid the plate is washed five times with 200 μL/well of 1×PBS and 100 μL/well solution of primary antibody plus europium-labelled secondary antibody [Anti Phospho-MEK (Ser217/221), Cell Signaling, #9121 and Eu-N1 labelled goat-anti-rabbit antibody, Perkin Elmer, # AD0105] is added, the primary antibody is diluted 1:2000 and the secondary antibody is diluted to 0.4-0.5 μg/mL in Delfia Assay Buffer (Perkin Elmer, #1244-111). After 1 h shaking at RT the solution is poured away and washed five times with 200 μL/well Delfia Wash Buffer (Perkin Elmer, #4010-0010/#1244-114). After the addition of 200 μL/well Enhancement Solution (Perkin Elmer, #4001-0010/#1244-105) the mixture is shaken for 10 min at RT and then measured in a Wallac Victor using the program “Delfia Time Resolved Fluorescence (Europium)”. IC50 values are obtained from these dosage-activity curves using a software program (GraphPadPrizm).

T1 sequence (P15056 whole entry V600E): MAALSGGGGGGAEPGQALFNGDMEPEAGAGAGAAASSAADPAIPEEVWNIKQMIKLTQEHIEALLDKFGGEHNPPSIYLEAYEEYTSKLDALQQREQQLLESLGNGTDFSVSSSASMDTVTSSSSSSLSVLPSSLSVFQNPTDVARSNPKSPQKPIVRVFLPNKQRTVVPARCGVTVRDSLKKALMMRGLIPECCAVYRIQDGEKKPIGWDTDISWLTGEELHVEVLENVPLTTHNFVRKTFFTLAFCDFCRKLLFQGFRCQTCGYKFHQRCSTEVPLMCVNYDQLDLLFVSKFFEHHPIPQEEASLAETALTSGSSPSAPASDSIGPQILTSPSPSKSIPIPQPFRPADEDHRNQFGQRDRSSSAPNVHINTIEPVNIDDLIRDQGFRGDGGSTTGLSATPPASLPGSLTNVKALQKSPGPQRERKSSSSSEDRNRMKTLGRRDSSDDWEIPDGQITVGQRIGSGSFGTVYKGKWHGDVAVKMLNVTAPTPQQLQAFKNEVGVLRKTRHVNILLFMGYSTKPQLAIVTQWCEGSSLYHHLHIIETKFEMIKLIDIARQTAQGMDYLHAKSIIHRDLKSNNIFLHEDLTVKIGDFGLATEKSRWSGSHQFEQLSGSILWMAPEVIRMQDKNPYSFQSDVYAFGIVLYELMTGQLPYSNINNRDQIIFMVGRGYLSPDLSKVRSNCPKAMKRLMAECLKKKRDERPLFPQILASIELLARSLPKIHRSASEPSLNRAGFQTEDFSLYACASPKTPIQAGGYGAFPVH

| IC50 [nM] | Structure (SMILES) |
| --- | --- |
| 4 | Cc1ncc(NC(=O)c2ccc(C(C)(C)C)o2)cc1-n1cc(-c2cncc(N3CCN(C(C)C)CC3)c2)nn1 [I-1] |
| 2 | Cc1ncc(NC(=O)c2ccc(C(C)(C)C)o2)cc1-n1cc(-c2cncc(N3CCN(C)CC3)c2)nn1 [I-2] |
| 3 | CCN1CCN(c2cncc(-c3cn(-c4cc(NC(=O)c5ccc(C(C)(C)C)o5)cnc4C)nn3)c2)CC1 [I-3] |
| 4 | Cc1ncc(NC(=O)c2ccc(C(C)(C)C)o2)cc1-n1cc(-c2cncc(N3CCN(C(C)(C)C)CC3)c2)nn1 [I-4] |
| 3 | Cc1ncc(NC(=O)c2ccc(C(C)(C)C)o2)cc1-n1cc(-c2cncc(N3CCN(CC4CC4)CC3)c2)nn1 [I-5] |
| 5 | COCCCN1CCN(c2cncc(-c3cn(-c4cc(NC(=O)c5ccc(C(C)(C)C)o5)cnc4C)nn3)c2)CC1 [I-6] |
| 5 | CCOCCN1CCN(c2cncc(-c3cn(-c4cc(NC(=O)c5ccc(C(C)(C)C)o5)cnc4C)nn3)c2)CC1 [I-7] |
| 8 | CCOCCN1CCN(c2cncc(-c3cn(-c4cc(NC(=O)c5ccc(C(C)(C)C)s5)cnc4C)nn3)c2)CC1 [I-8] |
| 7 | COCCCN1CCN(c2cncc(-c3cn(-c4cc(NC(=O)c5ccc(C(C)(C)C)s5)cnc4C)nn3)c2)CC1 [I-9] |
| 6 | Cc1ncc(NC(=O)c2ccc(C(C)(C)C)s2)cc1-n1cc(-c2cncc(N3CCN(CC4CC4)CC3)c2)nn1 [I-10] |
| 6 | Cc1ncc(NC(=O)c2ccc(C(C)(C)C)s2)cc1-n1cc(-c2cncc(N3CCN(C(C)(C)C)CC3)c2)nn1 [I-11] |
| 3 | CCN1CCN(c2cncc(-c3cn(-c4cc(NC(=O)c5ccc(C(C)(C)C)s5)cnc4C)nn3)c2)CC1 [I-12] |
| 5 | Cc1ncc(NC(=O)c2ccc(C(C)(C)C)s2)cc1-n1cc(-c2cncc(N3CCN(C(C)C)CC3)c2)nn1 [I-13] |
| 2 | Cc1ncc(NC(=O)c2ccc(C(C)(C)C)s2)cc1-n1cc(-c2cncc(N3CCN(C)CC3)c2)nn1 [I-14] |
| 20 | Cc1ncc(NC(=O)c2cc(C)n(C(C)(C)C)n2)cc1-n1cc(-c2cncc(N3CCN(C4CC4)CC3)c2)nn1 [I-15] |
| 9 | Cc1ncc(NC(=O)c2cc(C)n(C(C)(C)C)n2)cc1-n1cc(-c2cncc(N3CCCN(C)CC3)c2)nn1 [I-16] |
| 10 | CCCN1CCN(c2cncc(-c3cn(-c4cc(NC(=O)c5cc(C)n(C(C)(C)C)n5)cnc4C)nn3)c2)CC1 [I-17] |
| 8 | Cc1ncc(NC(=O)c2cc(C)n(C(C)(C)C)n2)cc1-n1cc(-c2cncc(N3CCN(C)CC3)c2)nn1 [I-18] |
| 8 | Cc1ncc(NC(=O)c2cc(C)n(C(C)(C)C)n2)cc1-n1cc(-c2cncc(N3CCN(C(C)C)CC3)c2)nn1 [I-19] |
| 7 | CCN1CCN(c2cncc(-c3cn(-c4cc(NC(=O)c5cc(C)n(C(C)(C)C)n5)cnc4C)nn3)c2)CC1 [I-20] |
| 9 | Cc1ncc(NC(=O)c2cc(C)n(C(C)(C)C)n2)cc1-n1cc(-c2cncc(N3CCN(C(C)(C)C)CC3)c2)nn1 [I-21] |
| 11 | Cc1ncc(NC(=O)c2cc(C)n(C(C)(C)C)n2)cc1-n1cc(-c2cncc(N3CCN(CC4CC4)CC3)c2)nn1 [I-22] |
| 14 | COCCCN1CCN(c2cncc(-c3cn(-c4cc(NC(=O)c5cc(C)n(C(C)(C)C)n5)cnc4C)nn3)c2)CC1 [I-23] |
| 16 | CCOCCN1CCN(c2cncc(-c3cn(-c4cc(NC(=O)c5cc(C)n(C(C)(C)C)n5)cnc4C)nn3)c2)CC1 [I-24] |
| 16 | Cc1ncc(NC(=O)c2cc(C)n(C(C)(C)C)n2)cc1-n1cc(-c2cncc(N3CCN(CCOC(C)C)CC3)c2)nn1 [I-25] |

| IC50 [nM] | Structure (SMILES) |
| --- | --- |
| 55 | CCc1cc(C(=O)Nc2cnc(C)c(-n3cc(-c4cncc(N5CCN(C6CC6)CC5)c4)nn3)c2)nn1C(C)(C)C [I-26] |
| 12 | CCc1cc(C(=O)Nc2cnc(C)c(-n3cc(-c4cncc(N5CCN(C(C)C)CC5)c4)nn3)c2)nn1C(C)(C)C [I-27] |
| 7 | CCCN1CCN(c2cncc(-c3cn(-c4cc(NC(=O)c5cc(CC)n(C(C)(C)C)n5)cnc4C)nn3)c2)CC1 [I-28] |
| 19 | Cc1ncc(NC(=O)c2cc(C)n(C(C)(C)C)n2)cc1-n1cc(-c2cncc(N3CCCN(C(C)C)CC3)c2)nn1 [I-29] |
| 15 | CCc1cc(C(=O)Nc2cnc(C)c(-n3cc(-c4cncc(N5CCN(C)CC5)c4)nn3)c2)nn1C(C)(C)C [I-30] |
| 12 | CCc1cc(C(=O)Nc2cnc(C)c(-n3cc(-c4cncc(N5CCN(CC)CC5)c4)nn3)c2)nn1C(C)(C)C [I-31] |
| 71 | CCCc1cc(C(=O)Nc2cnc(C)c(-n3cc(-c4cncc(N5CCN(C6CC6)CC5)c4)nn3)c2)nn1C(C)(C)C [I-32] |
| 16 | CCCc1cc(C(=O)Nc2cnc(C)c(-n3cc(-c4cncc(N5CCN(CC)CC5)c4)nn3)c2)nn1C(C)(C)C [I-33] |
| 23 | CCCc1cc(C(=O)Nc2cnc(C)c(-n3cc(-c4cncc(N5CCN(C(C)C)CC5)c4)nn3)c2)nn1C(C)(C)C [I-34] |
| 22 | CCCc1cc(C(=O)Nc2cnc(C)c(-n3cc(-c4cncc(N5CCN(CCC)CC5)c4)nn3)c2)nn1C(C)(C)C [I-35] |
| 18 | CCCc1cc(C(=O)Nc2cnc(C)c(-n3cc(-c4cncc(N5CCN(C)CC5)c4)nn3)c2)nn1C(C)(C)C [I-36] |
| 17 | Cc1ncc(NC(=O)c2cc(C(C)C)n(C(C)(C)C)n2)cc1-n1cc(-c2cncc(N3CCN(C)CC3)c2)nn1 [I-37] |
| 29 | Cc1ncc(NC(=O)c2cc(C(C)C)n(C(C)(C)C)n2)cc1-n1cc(-c2cncc(N3CCN(C(C)C)CC3)c2)nn1 [I-38] |
| 25 | CCN1CCN(c2cncc(-c3cn(-c4cc(NC(=O)c5cc(C(C)C)n(C(C)(C)C)n5)cnc4C)nn3)c2)CC1 [I-39] |
| 26 | CCCN1CCN(c2cncc(-c3cn(-c4cc(NC(=O)c5cc(C(C)C)n(C(C)(C)C)n5)cnc4C)nn3)c2)CC1 [I-40] |
| 16 | Cc1ncc(NC(=O)c2cc(C3CC3)n(C(C)(C)C)n2)cc1-n1cc(-c2cncc(N3CCN(C)CC3)c2)nn1 [I-41] |
| 22 | Cc1ncc(NC(=O)c2cc(C3CC3)n(C(C)(C)C)n2)cc1-n1cc(-c2cncc(N3CCN(C(C)C)CC3)c2)nn1 [I-42] |
| 22 | CCN1CCN(c2cncc(-c3cn(-c4cc(NC(=O)c5cc(C6CC6)n(C(C)(C)C)n5)cnc4C)nn3)c2)CC1 [I-43] |
| 30 | CCCN1CCN(c2cncc(-c3cn(-c4cc(NC(=O)c5cc(C6CC6)n(C(C)(C)C)n5)cnc4C)nn3)c2)CC1 [I-44] |
| 9 | Cc1ncc(NC(=O)c2cc(C)n(C(C)C)n2)cc1-n1cc(-c2cncc(N3CCN(C)CC3)c2)nn1 [I-45] |
| 6 | CCN1CCN(c2cncc(-c3cn(-c4cc(NC(=O)c5cc(C)n(C(C)C)n5)cnc4C)nn3)c2)CC1 [I-46] |
| 6 | Cc1ncc(NC(=O)c2cc(C)n(C(C)C)n2)cc1-n1cc(-c2cncc(N3CCN(C(C)C)CC3)c2)nn1 [I-47] |
| 8 | CCCN1CCN(c2cncc(-c3cn(-c4cc(NC(=O)c5cc(C)n(C(C)C)n5)cnc4C)nn3)c2)CC1 [I-48] |
| 22 | Cc1ncc(NC(=O)c2cc(C)n(C(C)C)n2)cc1-n1cc(-c2cncc(N3CCN(C4CC4)CC3)c2)nn1 [I-49] |
| 5 | Cc1ncc(NC(=O)c2cc(C)n(C(C)C)n2)cc1-n1cc(-c2cncc(N3CCCN(C)CC3)c2)nn1 [I-50] |
